Results as given in patent US8536202B2, “Triazole-substituted anthranilamides as pesticides” (Bayer Cropscience AG, priority 2010, dated 2013).
Read-outs that look alike come from different tables or passages of the source.

Legend:
[1] = log P determination by HPLC on reversed-phase columns (EEC Directive 79/831 Annex V.A8); type: physicochemical; settings: pH 2.7
Method in brief: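 Calibration used unbranched alkan-2-ones of 3 to 16 carbons with known log P, values interpolated linearly from retention times between neighbouring standards. Acidic-range LC-MS run at pH 2.7, eluents aqueous and acetonitrile formic acid 0.1%, linear gradient 10% to 95% acetonitrile.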

[2] = system: caterpillars of the armyworm (Spodoptera frugiperda); test: Spodoptera frugiperda test (SPODFR spray treatment); type: in vivo; settings: 168 h, 100 g/ha, after 7 days, read-out: activity in %
Method in brief: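 Percent caterpillar mortality read 7 days after infestation (0% none killed, 100% all killed). Treatment was a spray of the acetone/DMF/emulsifier formulation, water-diluted to test concentration, onto Zea mays leaf discs, allowed to dry before larvae were added.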

[3] = system: larvae of the mustard beetle (Phaedon cochleariae); test: Phaedon test (PHAECO spray treatment); type: in vivo; settings: 168 h, 100 g/ha, after 7 days, read-out: activity in %
Method in brief: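 Mortality of mustard beetle larvae, expressed as percent killed (100% all, 0% none), assessed 7 days after spraying. Spray liquor made from compound in acetone plus dimethylformamide with alkylaryl polyglycol ether, diluted in emulsifier-containing water to the desired concentration.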

[4] = system: green peach aphid (Myzus persicae); test: Myzus test (MYZUPE spray treatment), Use Example 4; type: in vivo; settings: 144 h, after 6 days; for pest or weed control at 100 g/ha: read-out: activity in %
Procedure: Solvents: 78 parts by weight of acetone • • 1.5 parts by weight of dimethylformamide
Emulsifier: 0.5 part by weight of alkylaryl polyglycol ether
An appropriate preparation of active compound is prepared by mixing 1 part by weight of active compound with the stated amounts of solvents and emulsifier and diluting the concentrate with emulsifier-containing water to the desired concentration.
Leaf discs of Chinese cabbage (Brassica pekinensis) infested by all stages of the green peach aphid (Myzus persicae) are sprayed with a preparation of active compound at the desired concentration.
After 6 days, the activity in % is ascertained. Here, 100% means that all of the aphids have been killed; 0% means that no aphids have been killed.

[5] = reversed-phase C18 HPLC column, HPLC on reversed-phase columns (C 18), EEC Directive 79/831 Annex V.A8, read-out: logP

Row | Compound | chromatographic logP [1, 5] | pest or weed control at 100 g/ha [2] [%] | pest or weed control at 100 g/ha [3] [%] | pest or weed control at 100 g/ha [4] [%] | chromatographic logP [1] | pest or weed control at 20 g/ha ([4]; 20 g/ha) [%]
1 | CNC(=O)c1cc(C#N)cc(C)c1NC(=O)c1cc(Cn2cc(C(F)(F)F)nn2)nn1-c1ncccc1Br [Example 5] | 2.66 | 100 | 100 | 100 |  | 
2 | Cc1cc(C#N)cc(C(=O)NC(C)C)c1NC(=O)c1cc(Cn2cc(C(F)(F)F)nn2)nn1-c1ncccc1Br [Example 6] | 3.11 | 100 | 100 | 90 |  | 
3 | CCNC(=O)c1cc(C#N)cc(C)c1NC(=O)c1cc(Cn2cc(C(F)(F)F)nn2)nn1-c1ncccc1Br [Example 8] | 2.88 | 100 | 100 | 80 |  | 
4 | CNC(=O)c1cc(C#N)cc(C)c1NC(=O)c1cc(Cn2ncc(C(F)(F)F)n2)nn1-c1ncccc1Br [Example 9] | 2.33 | 100 | 100 | 100 |  | 
5 | Cc1cc(C#N)cc(C(=O)NC2CC2)c1NC(=O)c1cc(Cn2ncc(C(F)(F)F)n2)nn1-c1ncccc1Br [Example 11] | 2.55 | 100 | 100 | 100 |  | 
6 | CCNC(=O)c1cc(C#N)cc(C)c1NC(=O)c1cc(Cn2ncc(C(F)(F)F)n2)nn1-c1ncccc1Br [Example 12] | 2.53 | 100 | 100 | 100 |  | 
7 | CNC(=O)c1cc(Cl)cc(C)c1NC(=O)c1cc(Cn2ncc(C3CC3)n2)nn1-c1ncccc1Cl [Example 21] |  | 100 | 100 | 100 | 2.85 | 
8 | Cc1cc(C#N)cc(C(=O)NC(C)(C)C)c1NC(=O)c1cc(Cn2cc(-c3ccc(F)cc3)nn2)nn1-c1ncccc1Cl [Example 53] |  | 100 | 100 | 80 | 3.17 | 
9 | Cc1cc(C#N)cc(C(=O)NC(C)(C)C)c1NC(=O)c1cc(Cn2cc(-c3ccc(Cl)cc3)nn2)nn1-c1ncccc1Cl [Example 54] |  | 100 | 100 | 80 | 3.54 | 
10 | CNC(=O)c1cc(C#N)cc(C)c1NC(=O)c1cc(Cn2nnc3cc(C(F)(F)F)ccc32)nn1-c1ncccc1Cl [Example 101] |  | 100 | 100 | 100 | 2.76 | 
11 | Cc1cc(C#N)cc(C(=O)NC(C)(C)C)c1NC(=O)c1cc(Cn2nnc3c(Cl)cc(C(F)(F)F)cc32)nn1-c1ncccc1Cl [Example 110] | 3.96 | 100 | 100 | 90 |  | 
12 | Cc1cc(Cl)cc(C(=O)NC2CC2)c1NC(=O)c1cc(Cn2nccn2)nn1-c1ncccc1Cl [Example 120] |  | 100 | 100 | 90 | 2.26 | 
13 | Cc1cc(Cl)cc(C(=O)NC(C)(C)C)c1NC(=O)c1cc(Cn2nccn2)nn1-c1ncccc1Cl [Example 121] |  | 100 | 100 | 100 | 2.87 | 
14 | Cc1cc(C#N)cc(C(N)=O)c1NC(=O)c1cc(Cn2ncc(C(F)(F)F)n2)nn1-c1ncccc1Cl [Example 123] |  | 100 | 100 |  | 2.41 | 100
15 | Cc1cc(C#N)cc(C(=O)NC(C)C2CC2)c1NC(=O)c1cc(Cn2ncc(C(F)(F)F)n2)nn1-c1ncccc1Cl (stereo not shown) [Example 125] |  | 100 | 100 | 100 | 3.39 | 
16 | Cc1cc(C#N)cc(C(=O)NC2CC2)c1NC(=O)c1cc(Cn2ncc(C(F)(F)F)n2)nn1-c1ncccc1Cl [Example 126] |  | 83 | 100 | 100 | 2.9 | 
17 | Cc1cc(C#N)cc(C(=O)NC(C)C)c1NC(=O)c1cc(Cn2cc(C(F)(F)F)nn2)nn1-c1ncccc1Cl [Example 181] |  | 100 |  | 90 | 2.67 | 
18 | Cc1cc(I)cc(C(=O)NC2CC2)c1NC(=O)c1cc(Cn2nc(C(F)(F)F)c(C(F)(F)F)n2)nn1-c1ncccc1Cl [Example 390] |  | 100 | 100 |  | 4.19 | 

Row | Compound | chromatographic logP [1, 5] | pest or weed control at 100 g/ha [2] [%] | pest or weed control at 100 g/ha [3] [%] | pest or weed control at 100 g/ha [4] [%] | chromatographic logP [1] | pest or weed control at 20 g/ha ([4]; 20 g/ha) [%]
19 | Cc1cc(I)cc(C(=O)NC(C)C2CC2)c1NC(=O)c1cc(Cn2nc(C(F)(F)F)c(C(F)(F)F)n2)nn1-c1ncccc1Cl (stereo not shown) [Example 391] |  | 100 | 100 |  | 4.76 | 
20 | CCNC(=O)c1cc(Cl)cc(C)c1NC(=O)c1cc(Cn2nc(C(F)(F)F)c(C(F)(F)F)n2)nn1-c1ncccc1Cl [Example 392] |  | 100 | 100 |  | 3.98 | 
21 | Cc1cc(Cl)cc(C(=O)NC2CC2)c1NC(=O)c1cc(Cn2nc(C(F)(F)F)c(C(F)(F)F)n2)nn1-c1ncccc1Cl [Example 394] |  | 100 | 100 |  | 3.96 | 
22 | Cc1cc(C#N)cc(C(=O)NCC2CC2)c1NC(=O)c1cc(Cn2nc(C(F)(F)F)c(C(F)(F)F)n2)nn1-c1ncccc1Cl [Example 395] |  | 100 | 100 |  | 3.89 | 
23 | CCNC(=O)c1cc(C#N)cc(C)c1NC(=O)c1cc(Cn2nc(C(F)(F)F)c(C(F)(F)F)n2)nn1-c1ncccc1Cl [Example 397] |  | 100 | 100 |  | 3.61 | 
24 | Cc1cc(C#N)cc(C(=O)NC(C)C)c1NC(=O)c1cc(Cn2nc(C(F)(F)F)c(C(F)(F)F)n2)nn1-c1ncccc1Cl [Example 398] |  | 100 | 100 |  | 3.84 | 
25 | Cc1cc(C#N)cc(C(=O)NC2CC2)c1NC(=O)c1cc(Cn2nc(C(F)(F)F)c(C(F)(F)F)n2)nn1-c1ncccc1Cl [Example 399] |  | 100 | 100 |  | 3.59 | 
26 | Cc1cc(I)cc(C(=O)NCC2CC2)c1NC(=O)c1cc(Cn2nc(C(F)(F)F)c(C(F)(F)F)n2)nn1-c1ncccc1Cl [Example 401] |  | 100 | 100 |  | 4.52 | 
27 | Cc1cc(I)cc(C(=O)NC(C)C)c1NC(=O)c1cc(Cn2nc(C(F)(F)F)c(C(F)(F)F)n2)nn1-c1ncccc1Cl [Example 403] |  | 100 | 100 |  | 4.47 | 
28 | Cc1cc(I)cc(C(=O)NC(C)(C)C)c1NC(=O)c1cc(Cn2nc(C(F)(F)F)c(C(F)(F)F)n2)nn1-c1ncccc1Cl [Example 404] |  | 100 | 100 |  | 4.84 | 
29 | CNC(=O)c1cc(I)cc(C)c1NC(=O)c1cc(Cn2nc(C(F)(F)F)c(C(F)(F)F)n2)nn1-c1ncccc1Cl [Example 405] |  | 100 | 100 |  | 4.03 | 
30 | Cc1cc(Cl)cc(C(=O)NCC2CC2)c1NC(=O)c1cc(Cn2nc(C(F)(F)F)c(C(F)(F)F)n2)nn1-c1ncccc1Cl [Example 406] |  | 100 | 100 |  | 4.29 | 
31 | Cc1cc(Cl)cc(C(N)=O)c1NC(=O)c1cc(Cn2nc(C(F)(F)F)c(C(F)(F)F)n2)nn1-c1ncccc1Cl [Example 407] |  | 100 | 100 |  | 3.49 | 
32 | Cc1cc(Cl)cc(C(=O)NC(C)C)c1NC(=O)c1cc(Cn2nc(C(F)(F)F)c(C(F)(F)F)n2)nn1-c1ncccc1Cl [Example 409] |  | 100 | 100 |  | 4.23 | 
33 | Cc1cc(Cl)cc(C(=O)NC(C)C2CC2)c1NC(=O)c1cc(Cn2nc(C(F)(F)F)c(C(F)(F)F)n2)nn1-c1ncccc1Cl (stereo not shown) [Example 410] |  | 100 | 100 |  | 4.5 | 
34 | CNC(=O)c1cc(Cl)cc(C)c1NC(=O)c1cc(Cn2nc(C(F)(F)F)c(C(F)(F)F)n2)nn1-c1ncccc1Cl [Example 411] |  | 100 | 100 |  | 3.78 | 
35 | Cc1cc(C#N)cc(C(=O)NC(C)C2CC2)c1NC(=O)c1cc(Cn2nc(C(F)(F)F)c(C(F)(F)F)n2)nn1-c1ncccc1Cl (stereo not shown) [Example 413] | 4.11 | 100 | 100 |  |  | 
